In BigSolDB 2.1:

CC(=NC#N)N(C)Cc1ccc(Cl)nc1
solubility (mole fraction)
Settings	278.15 K	283.15 K	288.15 K	293.15 K	298.15 K	303.15 K	308.15 K	313.15 K	318.15 K
in 1,4-dioxane	–	–	0.0693	0.0799	0.0941	0.113	0.132	0.153	0.175
in DMF	0.175	0.201	0.229	0.269	0.318	0.368	0.421	0.477	0.542
in DMSO	–	–	–	0.376	0.426	0.481	0.54	0.608	0.68
in NMP	0.197	0.221	0.255	0.299	0.352	0.405	0.46	0.523	0.589
in acetone	0.104	0.118	0.138	0.162	0.191	0.226	0.264	0.303	0.346
in ethanol	0.0162	0.0192	0.0232	0.0284	0.0328	0.0382	0.0448	0.05	0.0572
in ethyl acetate	0.0106	0.0128	0.0155	0.019	0.0233	0.0281	0.0332	0.039	0.0448
in ethylene glycol	0.00978	0.0106	0.0134	0.0163	0.0194	0.023	0.0269	0.0313	0.0367
in isobutanol	0.0028	0.00315	0.0037	0.00452	0.00519	0.00613	0.00696	0.00821	0.00932
in isopropanol	0.0067	0.00763	0.00886	0.0108	0.0127	0.0147	0.0166	0.0195	0.0221
in methanol	0.0199	0.0227	0.0273	0.0325	0.0382	0.0452	0.0532	0.0619	0.0703
in n-butanol	0.00149	0.00165	0.00202	0.00242	0.00284	0.00337	0.00378	0.00447	0.00507
in water	0.000146	0.000173	0.000213	0.000269	0.000348	0.00045	0.000572	0.000721	0.000911
